*1 amine or outer side, *2 acyl side, *3 side chain or, on linkers, in order; H or OH if unused. Where a SMILES comes first, the peptide text is derived from it. Bridges are numbered along the chain shown (N, C = ends). Roman numbers before positions name the chains, in order. [ ]: non-standard residue; d: D form. Actinocin(9to1) = Cc1c2oc3c(C)ccc(C(=O)[*:1])c3nc-2c(C(=O)[*:2])c(N)c1=O; NMeV = CN[C@H](C(=O)O)C(C)C; Sar = CNCC(=O)O
Tests used:
[1] = target: T1, nucleolin/nucleic acid ligand (Homo sapiens, UniProt P19338); assay: EMSA, interference with nucleolin/nucleic acid ligand interactions (ligands derived from human ribosomal DNA); format: binding
T1 construct: without the N-terminal acidic stretches domain
T1 sequence (P19338 284-710 limits assumed): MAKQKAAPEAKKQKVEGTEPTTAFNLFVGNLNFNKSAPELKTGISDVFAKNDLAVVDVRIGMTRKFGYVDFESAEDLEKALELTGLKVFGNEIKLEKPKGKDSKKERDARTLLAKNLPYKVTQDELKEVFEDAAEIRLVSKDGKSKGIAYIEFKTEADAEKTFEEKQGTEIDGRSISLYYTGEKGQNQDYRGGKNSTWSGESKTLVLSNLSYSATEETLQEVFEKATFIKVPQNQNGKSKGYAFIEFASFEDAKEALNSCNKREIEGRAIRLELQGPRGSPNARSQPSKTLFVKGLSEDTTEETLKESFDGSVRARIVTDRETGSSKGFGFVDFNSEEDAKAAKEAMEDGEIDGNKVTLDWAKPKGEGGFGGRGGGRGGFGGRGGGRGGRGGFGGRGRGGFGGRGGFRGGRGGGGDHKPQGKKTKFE
Protocol: (§1) The following assays assessed effects of compounds on interactions between nucleolin and nucleic acid ligands capable of forming quadruplex (QP) and hairpin (HP) secondary structures. Nucleic acid ligands tested were a cMyc QP DNA having nucleotide sequence 5′-[…]-3′ (SEQ ID NO: 176) and a HP pre-rRNA region to which nucleolin binds, having the sequence 5′-[…]-3′ (SEQ ID NO: 177). In the assays, recombinant nucleolin (˜250 nM), which was fused to maltose binding protein and had the sequence under accession number NM_005381 without the N-terminal acidic stretches domain, was incubated with each of the two ^32P-labeled nucleic acid ligands (10 or 250 nM). Nucleolin and the nucleic acid ligand were incubated in the presence or absence of a test compound of Formula A-1, B-1, C-6 or C-7 in an incubation buffer (12.5 mM Tris, pH 7.6, 60 mM KCl, 1 mM MgCl2, 0.1 mM EDTA, 1 mM DTT, 5% glycerol, 0.1 mg/ml BSA) for 30 minutes at room temperature. Structures for A-1 and B-1 are shown above and structures for C-6 and C-7 are shown hereafter: [drawing 17] The resulting complexes were separated on a 6% DNA retardation gel using 0.5× TBE with 20 mM KCl as a running buffer (i.e., electrophoresis mobility shift assay (EMSA)).
The assay also was conducted using nucleic acid ligands derived from human ribosomal DNA. Sequences of these nucleic acids are shown in the preceding example. […]

[2] = test system: 28S and 18S rRNA (total RNA from HCT116 cells); assay: Competition for rRNA binding with compound A-1 (agarose gel electrophoresis); parameters: species or system human; settings: 10 uM compound A-1; increasing amount of competitor (Actinomycin D 10, 100, 200 uM; pUC18 0.25-4 ug)
Protocol: Compounds that bound to the 28S rRNA were subjected to competition for rRNA binding with Actinomycin D, Se2SAP (FIG. 3A of US20040110820 published on Jun. 10, 2004) and double-stranded DNA (dsDNA) in confirmatory studies. In such assays, 1 ug of total RNA from HCT116 cells was incubated with 10 uM compound A-1 in a volume of 10 uL in the absence/ presence of (a) increasing amount of Actinomycin D (10, 100 and 200 uM) for 15 min at room temperature, (b) increasing amount of Se2SAP (see figure) for 30 min at room temperature, or (c) increasing amount of pUC18 (0.25, 0.5, 1, 2 and 4 ug) for 30 min at room temperature, followed by agarose gel electrophoresis.

[3] = test system: rRNA synthesis, HCT-116; assay: PCR assay of rRNA synthesis from 45S rDNA (5' ETS probe); format: cell-based; settings: Homo sapiens; rRNA synthesis, HCT-116; read-out: QPCRrDNA IC50_HCT-116
Protocol: Assays were conducted to determine the effects of compounds on rRNA synthesis from 45S rDNA. In particular, compound A-1 at various concentrations was incubated with cells and tested for an effect on rRNA synthesis after a two hour or four hour incubation with the compound. Synthesized rRNA was quantified by a polymerase chain reaction (PCR) assay. A primer/probe set was designed using Primer Express software and synthesized by Applied Biosystems. The 5′ ETS Probe utilized had the following sequence (@ its 3′ end): 6FAM-TTG ATC CTG CCA GTA GC-MGBNFQ (SEQ ID NO:227). The primer sequences were as follows:
(§2) Mix • 1 ug RNA • 2.5 ul 10× Taq Man buffer • 5.5 ul 25 mM MgCl2 • 5 ul of a mix of dNTP (500 uM each) • 1.2 ul random hexamer primer (2.5 uM stock) • 0.5 ul RNase inhibitor (0.4 units/ul) • 0.6 ul Reverse Transcriptase (1.2 units/ul) • bring to 25 ul total volume with water
(§3) Mix • 5 ul Reverse Transcriptase reaction product • 12.5 ul 2×PCR mix • 1 uM forward primer • 1 uM reverse primer • 0.5 uM Taq Man probe • 500 nM Rox • Adjust to 25 ul final volume with water
(§4) PCR cycles • 95 degrees C. 1 minute • 40 cycles of • 95 degrees C. 15 seconds • 60 degrees C. 1 minute.
(§5) Fluorescence of digested label was detected and quantified. […] The effect of other compounds on rRNA synthesis also were assessed in the assay, and provided in the table hereafter are IC50 values of selected compounds pertaining to rRNA synthesis and cMYC RNA synthesis.

[4] = test system: cMYC RNA synthesis, HCT-116; assay: PCR control assay of C-myc transcription; format: cell-based; settings: Homo sapiens, read-out: QPCRMYC IC50_HCT-116
Protocol: A control assay that detected effects of the compounds on C-myc transcription also was conducted using a primer/probe set purchased from ABI (TaqMan Gene Expression Assay with assay ID: Hs99999003_m1). The following assay protocol was utilized:
as §2, §3, §4, §5

[5] = test system: 28S rRNA and 18S rRNA (total RNA from HCT116 cells); assay: Human rRNA interaction screening assay (agarose gel electrophoresis mobility shift); format: binding; settings: 1 ug total RNA; 10 uM compound or 0.5 ug/mL PI, 15 min, room temperature
Protocol: RNA was isolated from HCT116 cells (RNeasy kit, QIAGEN) and contacted in vitro with each compound from a library of compounds. In representative assays, 1 ug of total RNA from HCT116 cells was incubated with 0.5 ug/mL of propidium iodide (PI), 10 uM compound A-1 or another compound in the library in a volume of 10 uL for 15 min at room temperature, followed by agarose gel electrophoresis. Fluorescence of the compounds was visualized on each gel. […] Compounds C-1, C-2, C-3, C-4 and C-5 have the following general formula: [drawing 15] [drawing 16]

[6] = target: T2, nucleolin/cMyc QP DNA (Homo sapiens, UniProt P19338); assay: EMSA, nucleolin/QP ligand interaction; format: binding; settings: nucleolin ~250 nM, 32P-labeled ligand 10 or 250 nM, 30 minutes (FIG. 1, FIG. 2)
T2 construct: without the N-terminal acidic stretches domain
T2 sequence (P19338 284-710 limits assumed): as above
Protocol: as §1

[7] = target: T3, nucleolin/HP pre-rRNA region (Homo sapiens, UniProt P19338); assay: EMSA, nucleolin/HP ligand interaction; format: binding; settings: nucleolin ~250 nM, 32P-labeled ligand 10 or 250 nM, 30 minutes (FIG. 1, FIG. 2)
T3 construct: without the N-terminal acidic stretches domain
T3 sequence (P19338 284-710 limits assumed): as above
Protocol: as §1

[8] = target: T4, nucleolin (Homo sapiens, UniProt P19338); assay: EMSA, relative affinity of nucleic acid ligands for nucleolin; format: binding; parameters: key: +: weakest nucleolin affinity; ++++: strongest nucleolin affinity
T4 construct: without the N-terminal acidic stretches domain
T4 sequence (P19338 284-710 limits assumed): as above
Protocol: as §1
The assay also was conducted using nucleic acid ligands derived from human ribosomal DNA. Sequences of these nucleic acids are shown in the preceding example. […] A “+” represents the weakest nucleolin affinity and least interference by compound A-1 and a “++++” represents the strongest nucleolin affinity and greatest interference by compound A-1.

[9] = target: T4, nucleolin; assay: Filter-binding assay of 32P-labeled quadruplexes and Nucleolin; settings: for Kd: 0.2 nM 32P-labeled quadruplex, read-out: Kd, apparent dissociation constant of nucleolin protein and the nucleic acid ligand
Protocol: The assay also was conducted in a filter-binding format. […] The protein-quadruplex mixtures were incubated for 30 min at ambient temperature and filtered through mixed cellulose ester membrane filters (Millipore) with gentle suction. The filters were washed twice with […] of binding buffer, dried and OptiPhase ‘SuperMix’ scintillation cocktail (Perkin Elmer) was added to the wells. Radioactivity was assayed with MicroBeta scintillation counter (Perkin Elmer). Binding curves were constructed and apparent Kd's and Bmax's for the complexes were calculated using the GraphPad Prizm software program (GraphPad Software). In the following table, the nucleic acid ligand is designated in the first column using the nomenclature described herein; the second column provides the nucleotide sequence of the nucleic acid ligand; the third column is the conformation of the ligand as determined by circular dichroism (M is mixed, P is parallel, A is antiparallel, C is complex, SS is single-stranded and ND is not determined); the fourth column is the dissociation constant determined by the filter binding assay of nucleolin protein and the nucleic acid ligand; the fifth column is a Bmax constant determined by the filter binding assay, which is the percent of active nucleic acid ligand in each assay; and the sixth column presents the concentration of Compound A-1 required to dissociate half of the complexed nucleic acid ligand and nucleolin protein, as determined by the EMSA assay described above.

## Cc1c2oc3c(C)ccc(C(=O)N[C@@H]4C(=O)N[C@H](C(C)C)C(=O)N5CCC[C@H]5C(=O)N(C)CC(=O)N(C)[C@@H](C(C)C)C(=O)O[C@@H]4C)c3nc-2c(C(=O)N[C@@H]2C(=O)N[C@H](C(C)C)C(=O)N3CCC[C@H]3C(=O)N(C)CC(=O)N(C)[C@@H](C(C)C)C(=O)O[C@@H]2C)c(N)c1=O [Actinomycin D, reference compound] (I: T[dV]P[Sar][NMeV] / II: T[dV]P[Sar][NMeV]; ester I:1-I:C, II:1-II:C; linker I:N-II:N via Actinocin(9to1))
[1]
  interference with nucleolin/nucleic acid ligand interactions: but not Actinomycin D, interfered with nucleolin/nucleic acid ligand interactions
[2]
  competition with compound A-1 for rRNA binding: failed to compete with compound A-1 for rRNA

## CC(=O)N1CCN(c2c(F)cc3c(=O)c(C(=O)NCCN4CCCC4)cn4c3c2Oc2cc(Cl)ccc2-4)CC1 [Compound 4]
[3]
  IC50: 50 nM
[4]
  IC50: 300 nM

## O=C(NCCN1CCCC1)c1cn2c3c(c(N4CCOCC4)c(F)cc3c1=O)Oc1cc(Cl)ccc1-2 [Compound 5]
[3]
  IC50: 50 nM
[4]
  IC50: 300 nM

## CC(=O)N1CCN(c2ccc3c(=O)c(C(=O)NCCN4CCCC4)c4sc5ccccc5n4c3n2)CC1 [Compound 6]
[3]
  IC50: 80 nM
[4]
  IC50: 300 nM

## O=C(NCCN1CCOCC1)c1c(=O)c2cnc(N3CCNCC3)nc2n2c1sc1ccccc12 [Compound 7]
[3]
  IC50: 80 nM
[4]
  IC50: 300 nM

## CC(=O)N1CCN(c2ccc3c(=O)n(CCCN4CCCC4)c4nc5ccccc5n4c3n2)CC1 [Compound 8]
[3]
  IC50: 50 nM
[4]
  IC50: 300 nM

## COc1ccc2c(=O)c(C(=O)NCCN3CCCC3)c3sc4ccccc4n3c2n1 [Compound 9]
[3]
  IC50: 50 nM
[4]
  IC50: 300 nM

## CN1CCCC1CCNC(=O)c1cn2c3c(c(N4CCC(c5ccccn5)C4)c(F)cc3c1=O)Oc1cc3ccccc3cc1-2 (stereo not drawn) [Compound C-1]
[5]
  binding to 28S versus 18S rRNA: selective binding to 28S over 18S

## CN1CCCC1CCNC(=O)c1cn2c3c(c(N4CCC(c5ccccn5)C4)c(F)cc3c1=O)Oc1cc3ccccc3cc1-2 (stereo not drawn) [Compound C-2]
[5]
  binding to 28S versus 18S rRNA: selective binding to 28S over 18S

## CN1CCCC1CCNC(=O)c1cn2c3c(c(N4CCC(c5ccccn5)C4)c(F)cc3c1=O)Oc1cc3ccccc3cc1-2 (stereo not drawn) [Compound C-3]
[5]
  binding to 28S versus 18S rRNA: less selectivity for 28S over 18S

## CN1CCCC1CCNC(=O)c1cn2c3c(c(N4CCC(c5ccccn5)C4)c(F)cc3c1=O)Oc1cc3ccccc3cc1-2 (stereo not drawn) [Compound C-4]
[5]
  binding to 28S versus 18S rRNA: less selectivity for 28S over 18S

## CN1CCCC1CCNC(=O)c1cn2c3c(c(N4CCC(c5ccccn5)C4)c(F)cc3c1=O)Oc1cc3ccccc3cc1-2 (stereo not drawn) [Compound C-5]
[5]
  binding to 28S versus 18S rRNA: specific binding to 28S over 18S

## CC(=O)N1CCN(c2c(F)cc3c(=O)c(C(=O)NCCN4CCCC4)cn4c3c2Oc2cc(Cl)ccc2-4)CC1 [Compound C-6]
[6]
  interference with the nucleolin/QP ligand interaction: interfered with the nucleolin/QP ligand interaction
[7]
  interference with the nucleolin/HP ligand interaction: did not significantly interfere with the nucleolin/HP ligand interaction

## CC(=O)N1CCN(c2c(F)cc3c(=O)c(C(=O)NCCC4CCCN4C)cn4c3c2Oc2cc3ccccc3cc2-4)CC1 (stereo not drawn) [Compound C-7]
[6]
  interference with the nucleolin/QP ligand interaction: interfered with the nucleolin/QP ligand interaction
[7]
  interference with the nucleolin/HP ligand interaction: did not significantly interfere with the nucleolin/HP ligand interaction

## CC[N+](C)(CC)CCC[n+]1c(-c2ccccc2)c2cc(N)ccc2c2ccc(N)cc21.[I-].[I-] [PI, propidium iodide, reference compound]
[5]
  binding to 28S versus 18S rRNA: did not discriminate in its binding to 18S and 28S rRNA

## GGGAGGGCGCGCGGGTCGGGG (listed as DNA, chemistry not given here; listed as Homo sapiens) [Compound 8749NT]
[8]
  Affinity for Nucleolin (relative): +
[9]
  Bmax, percent of active nucleic acid ligand: 13%
  Kd: 1.9 nM

## GGGAGGGGCACGGGCCGGGGGCGGGACGGG (listed as DNA, chemistry not given here; listed as Homo sapiens) [Compound 7733T]
[8]
  Affinity for Nucleolin (relative): +
[9]
  Bmax, percent of active nucleic acid ligand: 53%
  Kd: 0.8 nM

## GGGGCGCGGCGGGGGGAGAAGGGTCGGGGCGGCAGGGG (listed as DNA, chemistry not given here; listed as Homo sapiens) [Compound 11028NT]
[8]
  Affinity for Nucleolin (relative): +
[9]
  Bmax, percent of active nucleic acid ligand: 32%
  Kd: 2.7 nM

## GGGGGCGGGCTCCGGCGGGTGCGGGGGTGGGCGGGCGGGGCCGGGGGTGGGGTCGGCGGGGG [Compound 8511NT]
[8]
  Affinity for Nucleolin (relative): ++++
[9]
  Bmax, percent of active nucleic acid ligand: 100%
  Kd: 0.6 nM

## GGGTCGGGGGCGGTGGTGGGCCCGCGGGGG (listed as DNA, chemistry not given here; listed as Homo sapiens) [Compound 6183NT]
[8]
  Affinity for Nucleolin (relative): +
[9]
  Bmax, percent of active nucleic acid ligand: 26%
  Kd: 2.2 nM
